Test system: BaF3 V617F cells; UKE-1
Assay: Proliferation Assay (Cell Titer-Glo; Example 7)
Type: cell-based
Details: proliferation 72 hours, inhibit JAK2 activity, cell line (BaF3 V617F or UKE-1) not stated
Method in brief: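 Proliferation IC50s reflect 72 h compound exposure at 37 °C, read by Cell Titer-Glo luminescence. Compound was serially diluted 3-fold from a 5 mM DMSO stock and added as a 2× solution; BaF3 V617F cells were grown in RPMI/10% FBS, UKE-1 in Iscove's DMEM with FBS, equine serum and hydrocortisone.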

Row | SMILES | IC50
1 | COc1c(C)cc(Nc2ncc(Cl)c(Nc3ccc(CNS(=O)(=O)NC4CC4)cc3)n2)cc1C [II-154, 5-Chloro-N4-[4-((N-cyclopropylamino)sulfonylamino)methylphenyl]-N2-(3,5-dimethyl-4-methoxyphenyl)-2,4-pyrimidinediamine] | 42.9 nM
2 | CCOc1c(C)cc(Nc2ncc(Cl)c(Nc3ccc(CNS(=O)(=O)NC4CC4)cc3)n2)cc1C [II-155, 5-Chloro-N4-[4-((N-cyclopropylamino)sulfonylamino)methylphenyl]-N2-(3,5-dimethyl-4-ethoxyphenyl)-2,4-pyrimidinediamine] | 83.1 nM
3 | Cc1cc(Nc2ncc(Cl)c(Nc3ccc(CNS(=O)(=O)NC4CC4)cc3)n2)cc(C)c1OC(C)C [II-156, 5-Chloro-N4-[4-((N-cyclopropylamino)sulfonylamino)methylphenyl]-N2-(3,5-dimethyl-4-(1-methyl)ethoxyphenyl)-2,4-pyrimidinediamine] | 58.1 nM
4 | CCCOc1c(C)cc(Nc2ncc(Cl)c(Nc3ccc(CNS(=O)(=O)NC4CC4)cc3)n2)cc1C [II-157, 5-Chloro-N4-[4-((N-cyclopropylamino)sulfonylamino)methylphenyl]-N2-(3,5-dimethyl-4-propoxyphenyl)-2,4-pyrimidinediamine] | 138 nM
5 | COc1cc(Nc2ncc(Cl)c(Nc3ccc(CNS(=O)(=O)NC4CC4)cc3)n2)cc(C)c1OC [II-158, 5-Chloro-N4-[4-((N-cyclopropylamino)sulfonylamino)methylphenyl]-N2-(3,4-dimethoxy-5-methylphenyl)-2,4-pyrimidinediamine] | 158 nM
6 | Cc1cc(CNS(=O)(=O)C2CC2)ccc1Nc1nc(NC2=CC(C)C(C)(OCCN3CCOCC3)C=C2)ncc1C (centres unmarked) [II-161, N2-[3,4-Dimethyl-4-(2-(4-morpholinyl)ethoxy)phenyl]-5-methyl-N4-[2-methyl-4-(N-cyclopropylsulfonylamino)methylphenyl]-2,4-pyrimidinediamine] | 149 nM
7 | COc1c(C)cc(Nc2ncc(C)c(Nc3ccc(CNS(=O)(=O)NC4CC4)cc3)n2)cc1C [II-162, N4-[4-((N-Cyclopropylamino)sulfonylamino)methylphenyl]-N2-(3,5-dimethyl-4-methoxyphenyl)-5-methyl-2,4-pyrimidinediamine] | 134 nM
8 | CCOc1c(C)cc(Nc2ncc(C)c(Nc3ccc(CNS(=O)(=O)NC4CC4)cc3)n2)cc1C [II-163, N4-[4-((N-Cyclopropylamino)sulfonylamino)methylphenyl]-N2-(3,5-dimethyl-4-ethoxyphenyl)-5-methyl-2,4-pyrimidinediamine] | 63.6 nM
9 | Cc1cnc(Nc2cc(C)c(OC(C)C)c(C)c2)nc1Nc1ccc(CNS(=O)(=O)NC2CC2)cc1 [II-164, N4-[4-((N-Cyclopropylamino)sulfonylamino)methylphenyl]-N2-[3,5-dimethyl-4-(1-methyl)ethoxyphenyl]-5-methyl-2,4-pyrimidinediamine] | 94.8 nM
10 | CCCOc1c(C)cc(Nc2ncc(C)c(Nc3ccc(CNS(=O)(=O)NC4CC4)cc3)n2)cc1C [II-165, N4-[4-((N-Cyclopropylamino)sulfonylamino)methylphenyl]-N2-(3,5-dimethyl-4-propoxyphenyl)-5-Methyl-2,4-pyrimidinediamine] | 323 nM
11 | COc1cc(Nc2ncc(C)c(Nc3ccc(CNS(=O)(=O)NC4CC4)cc3)n2)cc(C)c1OC [II-166, N4-[4-((N-Cyclopropylamino)sulfonylamino)methylphenyl]-N2-(3,4-dimethoxy-5-methylphenyl)-5-methyl-2,4-pyrimidinediamine] | 247 nM
12 | CN1CCN(c2ccc(Nc3ncc(Cl)c(Nc4ccc(CNS(=O)(=O)NC5CC5)cc4)n3)cc2)CC1 [II-167, 5-Chloro-N4-[4-((N-cyclopropylamino)sulfonylamino)methylphenyl]-N2-[4-(4-methyl-1-piperazinyl)phenyl]-2,4-pyrimidinediamine] | 205 nM
13 | Cc1cc(Nc2ncc(Cl)c(Nc3ccc(CNS(=O)(=O)NC4CC4)cc3)n2)ccc1N1CCN(C)CC1 [II-168, 5-Chloro-N4-[4-((N-cyclopropylamino)sulfonylamino)methylphenyl]-N2-[3-methyl-4-(4-methyl-1-piperazinyl)phenyl]-2,4-pyrimidinediamine] | 2050 nM
14 | CN1CCN(c2ccc(Nc3ncc(Cl)c(Nc4ccc(CNS(=O)(=O)NC5CC5)cc4)n3)cn2)CC1 [II-169, 5-Chloro-N4-[4-((N-cyclopropylamino)sulfonylamino)methylphenyl]-N2-[6-(4-methyl-1-piperazinyl)-3-pyridinyl]-2,4-pyrimidinediamine] | 348 nM
15 | Cc1cnc(Nc2ccc(N3CCN(C)CC3)cc2)nc1Nc1ccc(CNS(=O)(=O)NC2CC2)cc1 [II-171, N4-[4-((N-Cyclopropylamino)sulfonylamino)methylphenyl]-5-methyl-N2-[4-(4-methyl-1-piperazinyl)phenyl]-2,4-pyrimidinediamine] | 735 nM
16 | Cc1cc(Nc2ncc(C)c(Nc3ccc(CNS(=O)(=O)NC4CC4)cc3)n2)ccc1N1CCN(C)CC1 [II-172, N4-[4-((N-Cyclopropylamino)sulfonylamino)methylphenyl]-5-methyl-N2-[3-methyl-4-(4-methyl-1-piperazinyl)phenyl]-2,4-pyrimidinediamine] | 2260 nM
17 | Cc1cnc(Nc2ccc(N3CCN(C)CC3)nc2)nc1Nc1ccc(CNS(=O)(=O)NC2CC2)cc1 [II-173, N4-[4-((N-Cyclopropylamino)sulfonylamino)methylphenyl]-5-methyl-N2-[6-(4-methyl-1-piperazinyl)-3-pyridinyl]-2,4-pyrimidinediamine] | 2340 nM
18 | COc1c(C)cc(Nc2ncc(Cl)c(Nc3ccc(CNS(=O)(=O)NC4CC4)cc3C)n2)cc1C [II-175, 5-Chloro-N2-(3,5-dimethyl-4-methoxyphenyl)-N4-[2-methyl-4-((N-cyclopropylamino)sulfonylamino)methylphenyl]-2,4-pyrimidinediamine] | 354 nM
19 | CCOc1c(C)cc(Nc2ncc(Cl)c(Nc3ccc(CNS(=O)(=O)NC4CC4)cc3C)n2)cc1C [II-176, 5-Chloro-N2-(3,5-dimethyl-4-ethoxyphenyl)-N4-[2-methyl-4-((N-cyclopropylamino)sulfonylamino)methylphenyl]-2,4-pyrimidinediamine] | 190 nM
20 | Cc1cc(CNS(=O)(=O)NC2CC2)ccc1Nc1nc(Nc2cc(C)c(OC(C)C)c(C)c2)ncc1Cl [II-177, 5-Chloro-N2-(3,5-dimethyl-4-(1-methylethoxy)phenyl)-N4-[2-methyl-4-((N-cyclopropylamino)sulfonylamino)methylphenyl]-2,4-pyrimidinediamine] | 643 nM
21 | CCCOc1c(C)cc(Nc2ncc(Cl)c(Nc3ccc(CNS(=O)(=O)NC4CC4)cc3C)n2)cc1C [II-178, 5-Chloro-N2-(3,5-dimethyl-4-propoxyphenyl)-N4-[2-methyl-4-((N-cyclopropylamino)sulfonylamino)methylphenyl]-2,4-pyrimidinediamine] | 428 nM
22 | COc1cc(Nc2ncc(Cl)c(Nc3ccc(CNS(=O)(=O)NC4CC4)cc3C)n2)cc(C)c1OC [II-179, 5-Chloro-N2-(3,4-dimethoxy-5-methylphenyl)-N4-[2-methyl-4-((N-cyclopropylamino)sulfonylamino)methylphenyl]-2,4-pyrimidinediamine] | 215 nM
23 | Cc1cc(CNS(=O)(=O)NC2CC2)ccc1Nc1nc(Nc2ccc(N3CCN(C)CC3)cc2)ncc1Cl [II-180, 5-Chloro-N4-[2-methyl-4-((N-cyclopropylamino)sulfonylamino)methylphenyl]-N2-[4-(4-methyl-1-piperazinyl)phenyl]-2,4-pyrimidinediamine] | 633 nM
